Test results taken from patent US9133224B2, “Macrocyclic kinase inhibitors” (OSI Pharmaceuticals, LLC, priority 2010, dated 2015).
pIC50: −log10 of the molar value. Where two headings read alike, the source gives them in different places.

Experiments:
FAK = target: T1, FAK (Homo sapiens, UniProt Q05397); assay: Cell-based capture ELISA for inhibition of FAK autophosphorylation [pY397] in U87MG cells
T1 construct: endogenous in cells; host or cells: U87MG glioblastoma cells (ATCC HTB-14)
Description: Cell-Based Assays for Inhibition of FAK Autophosphorylation: MiaPaCa2 and U87MG
The ability of compounds to inhibit FAK autophosphorylation was determined in a cell-based capture ELISA assay using U87MG glioblastoma cells (ATCC, Cat # HTB-14) and the FAK [pY397]ELISA kit from Invitrogen (KHO0441). The assay determines the ability of compounds to block endogenous autophosphorylation of FAK stimulated by fibronectin. Cells plated on fibronectin coated 96-well plate were incubated with compounds at various concentrations in the complete growth medium for 2 h. Cell lysates were then prepared and FAK protein was captured onto a FAK antibody-coated 96-well ELISA plate. The phosphotyrosine content of FAK protein was then monitored by quantitation of degree of binding of an antibody that recognizes only the phosphorylated FAK at Y397 within the captured protein.
Reagents Provided in Biosource FAK [pY397]
Cultures of U87MG cells growing in MEM (Earles) containing non-essential amino acids, sodium pyruvate (1 mM), […] (1%) and 10% fetal bovine serum were detached by trypsin-EDTA and suspended in cell growth medium. Cells were then plated onto fibronectin (600 ng/well)-coated 96-well flat bottom plates at 1.7×10^4 cells per well in 60 uL cell growth medium and incubated overnight at 37° C. in a CO2 incubator.
Compound dilutions were prepared from 10 mM DMSO stocks by dilution in cell growth medium, the final concentration of DMSO in the assay being 0.6%. […] The cells were then incubated with compounds at 37° C. for 2 h. The medium was removed by aspiration and cells were lysed by addition of 20 uL of ice-cold cell lysis buffer per well. The plates were kept on ice for 20 min and 50 uL of standard diluent was added to each well. 50 uL of cell lysate from each well was transferred to respective wells in an assay plate and 50 uL of detection antibody was added to all wells except H1-H6 which were no antibody control wells. Capture assay plates were incubated overnight in a cold room.
Following incubation of the cell lysates and detection antibodies in the ELISA plate, the wells were washed 4 times with 120 uL of wash buffer (1×), then 100 uL of diluted HRP conjugated antibody (1:100 dil in diluent) was added to each well, and the plate was incubated at RT for 30 min. The wells were then washed for 4 times with 120 uL of wash buffer (1×) and 100 uL of chromogen was added to each well and incubated in the dark at RT for 5-10 min. 100 uL of stop solution was added to each well and the absorbance measured at 450 nm, 0.1 s.
Comparison of the assay signals obtained in the presence of compound with those of positive and negative controls (cells with no compound and no detection antibody being added), allows degree of inhibition of phospho-FAK [Y397] to be determined over a range of compound concentrations. […] The assay as described above was modified to determine the effect of inclusion of 50% (v/v) mouse or human plasma. In this assay, the compound plate was prepared as 2× concentration in 100 uL of 100% mouse or human plasma, and 60 uL of this was added to 60 uL of culture medium and incubated at 37° C. incubator for 2 h. The rest of the assay was carried out as described above.

[1] = target: T2, GST-tagged full-length FAK enzyme (PTK2) (Homo sapiens, UniProt Q05397); assay: Biochemical Omnia Assay (FAK)
T2 construct: GST-tagged full-length FAK enzyme (PTK2, Invitrogen PV4085); GST; purchased Invitrogen PV4085
Description: Biochemical Omnia Assay Protocol
The Omnia Assay (Invitrogen) has been optimized for GST-tagged full-length FAK enzyme (PTK2, Invitrogen PV4085).
All compound concentrations were assayed in duplicate. Initial compound dilutions were prepared at 100× concentration in 100% DMSO from a 10 mM stock solution. Compounds were further diluted 1:25 in assay buffer resulting in a 4× concentrated solution.
In running the assay, 5 μL of the above 4× concentrated compound solution (or 4% DMSO for positive controls) was added to the assay plate followed by 5 μL of a solution containing peptide (40 μM) and ATP (200 μM) in assay buffer. The reaction was initiated by the addition of 10 μL of FAK (50 nM) in assay buffer, or assay buffer alone for negative controls. The increase in fluorescence due to peptide phosphorylation was monitored continuously as a function of time using a Spectramax M5 plate reader (Molecular Devices) equipped with SoftMax Pro 5.2 software.
IC50 values were determined from the slopes of the linear progress curves by non-linear curve-fitting using GraphPad Prism 5 (GraphPad Software, Inc.).

[2] = 50% (v/v) human plasma, mean IC50, read-out: FAK Activity Mechanistic (U87MG) HP
[3] = 50% (v/v) mouse plasma, mean IC50, read-out: FAK Activity Mechanistic (U87MG) MP
[4] = no plasma present, mean IC50, read-out: FAK Activity Mechanistic (U87MG) NP
[5] = mean IC50, [ATP] = 50uM, read-out: FAK Activity Biochemical OMNIA, [ATP] = 50uM

T2 sequence (Q05397 whole entry): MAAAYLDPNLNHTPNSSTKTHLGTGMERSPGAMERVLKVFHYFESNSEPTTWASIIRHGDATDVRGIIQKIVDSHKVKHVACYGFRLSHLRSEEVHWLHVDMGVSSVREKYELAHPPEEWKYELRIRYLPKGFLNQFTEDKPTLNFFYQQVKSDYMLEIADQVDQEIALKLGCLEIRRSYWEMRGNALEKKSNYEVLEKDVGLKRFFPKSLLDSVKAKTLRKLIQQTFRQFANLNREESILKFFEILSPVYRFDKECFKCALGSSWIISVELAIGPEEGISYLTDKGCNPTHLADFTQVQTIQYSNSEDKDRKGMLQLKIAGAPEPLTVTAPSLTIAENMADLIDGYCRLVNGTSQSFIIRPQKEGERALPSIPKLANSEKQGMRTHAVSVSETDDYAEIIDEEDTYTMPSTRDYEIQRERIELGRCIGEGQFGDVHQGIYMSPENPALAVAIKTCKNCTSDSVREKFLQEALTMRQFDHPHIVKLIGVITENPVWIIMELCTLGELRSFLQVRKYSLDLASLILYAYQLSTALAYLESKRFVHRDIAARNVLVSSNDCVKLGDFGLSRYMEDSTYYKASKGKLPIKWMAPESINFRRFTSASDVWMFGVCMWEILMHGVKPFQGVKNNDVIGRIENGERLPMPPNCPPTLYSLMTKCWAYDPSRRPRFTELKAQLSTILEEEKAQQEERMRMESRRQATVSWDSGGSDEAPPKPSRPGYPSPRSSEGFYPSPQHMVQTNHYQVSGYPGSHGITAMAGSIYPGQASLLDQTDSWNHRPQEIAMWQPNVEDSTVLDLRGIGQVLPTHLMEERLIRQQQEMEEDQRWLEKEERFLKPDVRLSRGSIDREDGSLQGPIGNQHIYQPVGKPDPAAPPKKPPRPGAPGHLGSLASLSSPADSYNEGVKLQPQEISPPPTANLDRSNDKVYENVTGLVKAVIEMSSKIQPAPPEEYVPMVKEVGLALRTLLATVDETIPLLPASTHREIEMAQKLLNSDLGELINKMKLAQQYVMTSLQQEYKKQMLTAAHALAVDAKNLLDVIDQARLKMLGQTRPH
T1 sequence (Q05397 whole entry): as above

| pIC50 (FAK; [3]) | Structure (SMILES) | pIC50 (FAK; [2]) | pIC50 (FAK; [4]) | pIC50 [1, 5] | pIC50 [1] |
| --- | --- | --- | --- | --- | --- |
| 5.40 to 6.40 | CCCP1(=O)Cc2ccc(c(OC)c2)Nc2ncc(C(F)(F)F)c(n2)Nc2ccc(nc2C(=O)NC)-c2cnn(c2)CCCO1 (single isomer, unassigned) [Example 37A] | 5.40 to 6.40 | > 6.40 | > 6.40 |  |
| 5.40 to 6.40 | CNC(=O)c1nc2ccc1Nc1nc(ncc1C(F)(F)F)Nc1ccc(cc1OC)CP(=O)(C(C)C)OCCCn1cc-2cn1 (single isomer, unassigned) [Example 68A] | 5.40 to 6.40 | > 6.40 | > 6.40 |  |
|  | CCOP1(=O)Cc2ccc(c(OC)c2)Nc2ncc(C(F)(F)F)c(n2)Nc2ccc(nc2C(=O)NC)-c2cc(C(=O)N(C)C)n(c2)CCCO1 (racemic) [Example 41] | > 6.40 | > 6.40 |  | > 6.40 |
|  | CCOP1(=O)Cc2ccc(c(OC)c2)Nc2ncc(C(F)(F)F)c(n2)Nc2ccc(nc2C(=O)NC)-c2cn(nc2C)CC2(COC2)CO1 (single isomer, unassigned) [Example 60A] | > 6.40 | > 6.40 |  | > 6.40 |
|  | CNC(=O)c1nc2ccc1Nc1nc(ncc1C(F)(F)F)Nc1ccc(cc1OC)CP(C)(=O)OCCCn1cc-2cn1 (single isomer, unassigned) [Example 61B] |  |  | > 6.40 |  |
|  | CCNC(=O)c1nc2ccc1Nc1nc(ncc1C(F)(F)F)Nc1ccc(cc1OC)CP(=O)(OCC)OCC1(COC1)Cn1cc-2cn1 (racemic) [Example 45] | > 6.40 | > 6.40 |  | > 6.40 |
| > 6.40 | CNC(=O)c1nc2ccc1Nc1nc(ncc1C(F)(F)F)Nc1ccc(cc1OC)CP(=O)(C(C)C)OCCCn1cc-2cn1 (single isomer, unassigned) [Example 68B] | > 6.40 | > 6.40 | > 6.40 |  |
|  | CCOP1(=O)Cc2ccc(cc2)Nc2ncc(C(F)(F)F)c(n2)Nc2ccc(nc2C(=O)NC)-c2cnn(c2)CCCCO1 (stereo not shown) [Example 16, 11-ethoxy-N-methyl-21-(trifluoromethyl)-10-oxa-4,5,17,19,23,26,29-heptaaza-11-phosphapentacyclo[22.2.2.2^13,16.1^2,5.1^18,22]dotriaconta-1(26),2(32),3,13,15,18(29),19,21,24,27,30-undecaene-25-carboxamide 11-oxide] | > 6.40 | > 6.40 |  | > 6.40 |
|  | CCOP1(=O)Cc2ccc(cc2)Nc2ncc(C(F)(F)F)c(n2)Nc2ccc(nc2C(=O)NC)-c2cnn(c2)CCCO1 (racemic) [Example 13] | > 6.40 | > 6.40 | > 6.40 |  |
|  | CCOP1(=O)Cc2ccc(c(OC)c2)Nc2ncc(C(F)(F)F)c(n2)Nc2ccc(nc2C(=O)NC)-c2cnn(c2)CC(F)(F)CO1 (single isomer, unassigned) [Example 59B] | 5.40 to 6.40 | 5.40 to 6.40 |  | > 6.40 |
| > 6.40 | CNC(=O)c1nc2ccc1Nc1nc(ncc1C(F)(F)F)Nc1ccc(cc1OC)CP(=O)(OC(C)C)OCCCn1cc-2cn1 (racemic) [Example 72] | > 6.40 | > 6.40 |  |  |
|  | CCOP1(=O)Cc2ccc(c(Cl)c2)Nc2ncc(C(F)(F)F)c(n2)Nc2ccc(nc2C(=O)NC)-c2cnn(c2)CCCCO1 (racemic) [Example 25] | > 6.40 | > 6.40 |  | > 6.40 |
|  | CCOP1(=O)Cc2ccc(c(OC)c2)Nc2ncc(C(F)(F)F)c(n2)Nc2ccc(cc2C(=O)NC)-c2cnn(c2)CCCCO1 (racemic) [Example 14] | > 6.40 | > 6.40 | > 6.40 |  |
|  | CCOP1(=O)Cc2ccc(c(OC)c2)Nc2ncc(C(F)(F)F)c(n2)Nc2ccc(nc2C(=O)NC)-c2cnn(c2C)CCCO1 (single isomer, unassigned) [Example 35B] | > 6.40 | > 6.40 | > 6.40 |  |
|  | CCOP1(=O)Cc2ccc(c(OC)c2)Nc2ncc(C(F)(F)F)c(n2)Nc2ccc(nc2C(=O)NC)-c2cnn(c2)C(C)(C)CCO1 (single isomer, unassigned) [Example 50A] | 5.40 to 6.40 | > 6.40 | > 6.40 |  |
| > 6.40 | CNC(=O)c1nc2ccc1Nc1nc(ncc1C(F)(F)F)Nc1ccc(cc1OC)CP(=O)(OC(C)C)OCCCn1cc-2cn1 (single isomer, unassigned) [Example 72A] | 5.40 to 6.40 | > 6.40 |  |  |
|  | CCOP1(=O)Cc2ccc(cc2)Nc2ncc(C(F)(F)F)c(n2)Nc2ccc(c3c2C(=O)N(C)C3)-c2cnn(c2)CCCO1 (racemic) [Example 2] | > 6.40 |  |  | > 6.40 |
|  | CCOP1(=O)Cc2ccc(c(OC)c2)Nc2ncc(C(F)(F)F)c(n2)Nc2ccc(nc2C(=O)NC)-c2cn(nc2C)CCCO1 (racemic) [Example 34] | > 6.40 | > 6.40 | > 6.40 |  |
|  | CCOP1(=O)Cc2ccc(c(OC)c2)Nc2ncc(C(F)(F)F)c(n2)Nc2ccc(nc2C(=O)NC)-c2cnn(c2)CCCO1 (single isomer, unassigned) [Example 6B] | > 6.40 | > 6.40 |  | > 6.40 |
|  | CCOP1(=O)Cc2ccc(c(OC)c2)Nc2ncc(C(F)(F)F)c(n2)Nc2ccc(nc2C(=O)NC)-c2cnn(c2)CC2(CC2)CO1 (racemic) [Example 63] | > 6.40 | > 6.40 |  |  |
| > 6.40 | CNC(=O)c1nc2ccc1Nc1nc(ncc1C(F)(F)F)Nc1ccc(cc1OC)CP(C)(=O)OCCCn1cc-2cn1 (single isomer, unassigned) [Example 61A] | > 6.40 | > 6.40 | > 6.40 |  |
|  | CCOP1(=O)Cc2ccc(c(OC)c2)Nc2ncc(C(F)(F)F)c(n2)Nc2ccc(c3c2C(=O)N(C)C3)-c2cnn(c2)CCCO1 (racemic) [Example 1] | > 6.40 | > 6.40 |  | > 6.40 |
|  | CCOP1(=O)Cc2ccc(c(OC)c2)Nc2ncc(C(F)(F)F)c(n2)Nc2ccc(nc2C(=O)NC)-c2cnn(c2)CC[C@@H](C)O1 (mixture of isomers) [Example 69] | > 6.40 | > 6.40 |  |  |
| > 6.40 | CCP1(=O)Cc2ccc(c(OC)c2)Nc2ncc(C(F)(F)F)c(n2)Nc2ccc(nc2C(=O)NC)-c2cnn(c2)CC2(CC2)CO1 (racemic) [Example 71] | > 6.40 | > 6.40 |  |  |

| Structure (SMILES) | pIC50 (FAK; [3]) | pIC50 (FAK; [2]) | pIC50 (FAK; [4]) | pIC50 [1, 5] | pIC50 [1] |
| --- | --- | --- | --- | --- | --- |
| CCOP1(=O)Cc2ccc(c(OC)c2Cl)Nc2ncc(C(F)(F)F)c(n2)Nc2ccc(nc2C(=O)NC)-c2cnn(c2)CC2(COC2)CO1 (racemic) [Example 55] | 5.40 to 6.40 | > 6.40 | > 6.40 |  | > 6.40 |
| CCOP1(=O)Cc2ccc(c(OC)c2)Nc2ncc(C(F)(F)F)c(n2)Nc2ccc(nc2C(=O)NC)-c2cn(nc2Cl)CCCO1 (single isomer, unassigned) [Example 49A] | 5.40 to 6.40 | < 5.40 | > 6.40 | > 6.40 |  |
| CCOP1(=O)Cc2ccc(c(OC)c2)Nc2ncc(C(F)(F)F)c(n2)Nc2ccc(nc2C(=O)NC)-c2cnn(c2)CC[C@H](C)O1 (mixture of isomers) [Example 70] | 5.40 to 6.40 | > 6.40 | > 6.40 |  |  |
